Data published in ChEMBL document CHEMBL3991601, “The target landscape of clinical kinase drugs” (Science, 2017).
Calls of active or inactive are those of the source.

How the values were obtained:
GTP-binding protein 4 = GTP-binding protein 4 (Homo sapiens, UniProt Q9BZE4)
[1] = target: PAS domain-containing serine/threonine-protein kinase (Homo sapiens, UniProt Q96RG2)
[2] = target: Protein kinase C alpha type (Homo sapiens, UniProt P17252)
[3] = target: Mitogen-activated protein kinase 8 (Homo sapiens, UniProt P45983)
Sequence of Mitogen-activated protein kinase 8 (P45983 whole entry): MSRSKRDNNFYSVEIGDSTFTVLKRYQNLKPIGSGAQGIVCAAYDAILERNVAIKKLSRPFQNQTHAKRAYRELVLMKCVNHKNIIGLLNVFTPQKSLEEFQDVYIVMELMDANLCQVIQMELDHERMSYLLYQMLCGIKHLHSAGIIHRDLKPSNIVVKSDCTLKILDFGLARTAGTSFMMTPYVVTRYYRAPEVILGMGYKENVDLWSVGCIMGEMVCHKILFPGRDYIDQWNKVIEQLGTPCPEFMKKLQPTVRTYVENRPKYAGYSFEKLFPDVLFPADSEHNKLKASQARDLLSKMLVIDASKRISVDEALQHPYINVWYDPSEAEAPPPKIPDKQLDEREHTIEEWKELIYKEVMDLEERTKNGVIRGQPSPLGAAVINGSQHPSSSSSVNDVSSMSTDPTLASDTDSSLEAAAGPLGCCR

[4] = target: Protein-tyrosine kinase 6 (Homo sapiens, UniProt Q13882)
[5] = target: T1, Glycogen phosphorylase, brain form (Homo sapiens, UniProt P11216)
T1 sequence (P11216 whole entry): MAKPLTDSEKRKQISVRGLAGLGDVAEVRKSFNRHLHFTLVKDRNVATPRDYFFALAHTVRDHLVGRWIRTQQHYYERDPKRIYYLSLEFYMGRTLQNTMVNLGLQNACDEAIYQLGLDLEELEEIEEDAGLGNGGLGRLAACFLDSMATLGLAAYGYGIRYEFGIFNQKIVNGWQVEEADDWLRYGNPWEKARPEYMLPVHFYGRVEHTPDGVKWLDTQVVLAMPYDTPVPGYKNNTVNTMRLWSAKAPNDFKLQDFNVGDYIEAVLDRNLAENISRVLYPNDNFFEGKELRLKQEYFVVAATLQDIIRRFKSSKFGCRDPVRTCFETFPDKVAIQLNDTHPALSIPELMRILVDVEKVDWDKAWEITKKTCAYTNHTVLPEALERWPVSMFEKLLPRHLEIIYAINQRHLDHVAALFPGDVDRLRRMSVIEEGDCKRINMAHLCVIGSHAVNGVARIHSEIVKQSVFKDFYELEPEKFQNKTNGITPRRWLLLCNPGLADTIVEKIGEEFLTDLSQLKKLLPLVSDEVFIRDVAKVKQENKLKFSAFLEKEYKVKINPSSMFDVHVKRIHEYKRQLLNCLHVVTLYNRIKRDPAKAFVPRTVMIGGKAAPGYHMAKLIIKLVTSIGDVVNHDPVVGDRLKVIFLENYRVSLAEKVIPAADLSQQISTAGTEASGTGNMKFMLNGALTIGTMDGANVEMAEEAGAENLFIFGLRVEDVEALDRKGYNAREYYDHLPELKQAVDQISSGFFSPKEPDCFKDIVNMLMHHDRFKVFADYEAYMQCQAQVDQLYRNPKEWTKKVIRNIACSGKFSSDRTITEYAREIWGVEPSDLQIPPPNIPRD

[6] = target: Epithelial discoidin domain-containing receptor 1 (Homo sapiens, UniProt Q08345)
Sequence of Epithelial discoidin domain-containing receptor 1 (Q08345 whole entry, the tested form may be a part): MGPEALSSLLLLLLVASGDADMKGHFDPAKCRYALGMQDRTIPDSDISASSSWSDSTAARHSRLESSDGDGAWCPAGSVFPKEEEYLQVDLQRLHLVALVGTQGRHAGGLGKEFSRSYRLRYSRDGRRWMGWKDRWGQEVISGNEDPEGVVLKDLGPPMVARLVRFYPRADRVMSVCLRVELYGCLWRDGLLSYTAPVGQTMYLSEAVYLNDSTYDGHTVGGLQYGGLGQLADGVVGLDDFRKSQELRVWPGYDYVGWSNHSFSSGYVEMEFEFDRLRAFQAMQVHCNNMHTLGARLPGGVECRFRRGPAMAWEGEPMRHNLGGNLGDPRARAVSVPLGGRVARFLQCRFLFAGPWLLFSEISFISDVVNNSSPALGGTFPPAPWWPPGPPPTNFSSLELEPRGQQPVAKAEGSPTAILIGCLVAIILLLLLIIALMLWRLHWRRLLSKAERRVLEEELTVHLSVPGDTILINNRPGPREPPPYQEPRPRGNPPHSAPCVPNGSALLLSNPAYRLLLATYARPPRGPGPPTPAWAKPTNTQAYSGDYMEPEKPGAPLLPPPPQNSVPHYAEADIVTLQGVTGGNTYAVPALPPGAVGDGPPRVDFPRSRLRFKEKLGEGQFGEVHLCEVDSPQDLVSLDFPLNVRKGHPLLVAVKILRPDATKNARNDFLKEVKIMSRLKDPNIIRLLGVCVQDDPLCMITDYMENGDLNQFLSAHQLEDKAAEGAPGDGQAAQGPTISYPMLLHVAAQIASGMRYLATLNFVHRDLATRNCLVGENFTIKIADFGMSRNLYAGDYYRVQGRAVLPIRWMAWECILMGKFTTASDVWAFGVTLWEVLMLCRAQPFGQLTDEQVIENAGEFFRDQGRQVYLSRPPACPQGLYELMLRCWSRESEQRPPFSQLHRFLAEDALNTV

Myosin-10 = Myosin-10 (Homo sapiens, UniProt P35580)
Sequence of Myosin-10 (P35580 whole entry): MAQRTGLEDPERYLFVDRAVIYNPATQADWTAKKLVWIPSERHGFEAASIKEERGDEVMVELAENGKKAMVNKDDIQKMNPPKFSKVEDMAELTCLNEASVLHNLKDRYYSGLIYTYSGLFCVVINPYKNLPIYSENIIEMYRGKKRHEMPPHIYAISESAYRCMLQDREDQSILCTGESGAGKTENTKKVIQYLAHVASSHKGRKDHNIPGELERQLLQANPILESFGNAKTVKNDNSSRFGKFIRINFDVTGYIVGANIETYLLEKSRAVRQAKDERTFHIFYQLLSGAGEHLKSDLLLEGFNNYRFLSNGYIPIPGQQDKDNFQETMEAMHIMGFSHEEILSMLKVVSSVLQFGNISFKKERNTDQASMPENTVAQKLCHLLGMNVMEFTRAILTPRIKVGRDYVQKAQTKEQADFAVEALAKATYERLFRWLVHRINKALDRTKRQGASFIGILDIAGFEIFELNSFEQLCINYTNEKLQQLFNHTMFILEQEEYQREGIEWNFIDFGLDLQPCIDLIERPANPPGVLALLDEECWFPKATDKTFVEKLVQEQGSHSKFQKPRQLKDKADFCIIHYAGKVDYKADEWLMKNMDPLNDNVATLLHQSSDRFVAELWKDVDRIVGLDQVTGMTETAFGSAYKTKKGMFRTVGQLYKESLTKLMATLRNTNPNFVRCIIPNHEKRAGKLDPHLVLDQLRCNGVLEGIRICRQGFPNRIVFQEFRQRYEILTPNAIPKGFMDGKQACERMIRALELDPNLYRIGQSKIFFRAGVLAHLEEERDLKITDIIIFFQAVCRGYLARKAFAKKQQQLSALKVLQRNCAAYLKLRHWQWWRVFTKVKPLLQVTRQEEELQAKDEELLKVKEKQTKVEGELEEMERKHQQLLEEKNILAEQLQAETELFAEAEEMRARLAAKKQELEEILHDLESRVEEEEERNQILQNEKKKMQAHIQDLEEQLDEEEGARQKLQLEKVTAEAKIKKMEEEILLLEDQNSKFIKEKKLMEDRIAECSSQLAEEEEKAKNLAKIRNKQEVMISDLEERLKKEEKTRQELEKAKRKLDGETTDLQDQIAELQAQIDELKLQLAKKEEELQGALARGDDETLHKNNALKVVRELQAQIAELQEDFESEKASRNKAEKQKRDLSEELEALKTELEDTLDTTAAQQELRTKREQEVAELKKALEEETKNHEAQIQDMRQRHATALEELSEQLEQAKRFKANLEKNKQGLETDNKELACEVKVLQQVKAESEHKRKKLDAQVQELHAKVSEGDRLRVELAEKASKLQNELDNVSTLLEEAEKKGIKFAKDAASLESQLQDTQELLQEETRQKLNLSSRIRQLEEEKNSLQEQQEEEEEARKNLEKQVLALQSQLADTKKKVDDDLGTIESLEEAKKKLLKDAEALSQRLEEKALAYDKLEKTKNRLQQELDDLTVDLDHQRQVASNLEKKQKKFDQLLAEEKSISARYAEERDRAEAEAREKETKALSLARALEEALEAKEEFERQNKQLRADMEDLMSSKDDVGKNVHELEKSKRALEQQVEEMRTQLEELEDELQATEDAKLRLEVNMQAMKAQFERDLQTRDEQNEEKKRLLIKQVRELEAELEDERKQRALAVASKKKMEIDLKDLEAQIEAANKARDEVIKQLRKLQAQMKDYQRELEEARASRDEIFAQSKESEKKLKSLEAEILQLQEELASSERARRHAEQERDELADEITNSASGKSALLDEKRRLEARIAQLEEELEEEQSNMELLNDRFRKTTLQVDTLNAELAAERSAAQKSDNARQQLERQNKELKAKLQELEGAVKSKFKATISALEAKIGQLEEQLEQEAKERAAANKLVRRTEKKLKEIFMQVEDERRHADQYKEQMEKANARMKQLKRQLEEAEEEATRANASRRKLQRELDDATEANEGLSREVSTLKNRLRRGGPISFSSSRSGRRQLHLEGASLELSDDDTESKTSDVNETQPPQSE

[7] = target: Cyclin-dependent kinase 7 (Homo sapiens, UniProt P50613)
Sequence of Cyclin-dependent kinase 7 (P50613 whole entry): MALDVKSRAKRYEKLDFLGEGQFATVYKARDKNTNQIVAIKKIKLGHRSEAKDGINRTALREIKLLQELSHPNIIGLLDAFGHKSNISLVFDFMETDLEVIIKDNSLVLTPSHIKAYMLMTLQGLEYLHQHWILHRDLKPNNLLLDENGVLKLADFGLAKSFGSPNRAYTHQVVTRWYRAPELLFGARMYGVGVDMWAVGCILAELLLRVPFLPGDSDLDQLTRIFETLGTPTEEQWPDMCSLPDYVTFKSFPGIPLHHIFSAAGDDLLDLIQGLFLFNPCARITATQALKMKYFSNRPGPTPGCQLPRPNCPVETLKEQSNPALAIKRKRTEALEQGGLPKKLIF

[8] = target: Elongation factor Tu, mitochondrial (Homo sapiens, UniProt P49411)
[9] = target: T2, DNA replication licensing factor MCM4 (Homo sapiens, UniProt P33991)
T2 sequence (P33991 whole entry): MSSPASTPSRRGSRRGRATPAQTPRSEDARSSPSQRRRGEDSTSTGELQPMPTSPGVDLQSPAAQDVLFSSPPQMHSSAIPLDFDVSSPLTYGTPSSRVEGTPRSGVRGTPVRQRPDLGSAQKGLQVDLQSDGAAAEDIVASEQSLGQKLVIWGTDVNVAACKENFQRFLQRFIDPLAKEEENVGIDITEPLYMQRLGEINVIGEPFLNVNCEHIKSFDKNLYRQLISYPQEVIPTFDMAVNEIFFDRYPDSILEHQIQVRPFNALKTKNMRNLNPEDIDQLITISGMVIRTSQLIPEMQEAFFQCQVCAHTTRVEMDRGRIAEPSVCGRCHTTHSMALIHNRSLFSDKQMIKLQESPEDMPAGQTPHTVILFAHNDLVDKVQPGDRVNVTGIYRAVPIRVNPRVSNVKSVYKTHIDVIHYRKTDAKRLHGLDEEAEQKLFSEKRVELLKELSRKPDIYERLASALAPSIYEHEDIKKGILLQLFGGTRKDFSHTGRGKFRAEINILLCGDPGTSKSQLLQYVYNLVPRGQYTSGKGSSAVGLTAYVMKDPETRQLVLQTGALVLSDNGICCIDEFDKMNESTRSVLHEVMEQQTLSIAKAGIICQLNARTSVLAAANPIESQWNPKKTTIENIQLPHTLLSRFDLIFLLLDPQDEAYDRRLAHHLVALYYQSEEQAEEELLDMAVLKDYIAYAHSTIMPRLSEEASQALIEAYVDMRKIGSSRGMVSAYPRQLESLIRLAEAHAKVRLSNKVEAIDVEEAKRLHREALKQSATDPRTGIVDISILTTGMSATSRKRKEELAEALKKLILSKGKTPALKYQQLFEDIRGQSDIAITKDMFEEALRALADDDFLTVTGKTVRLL

[10] = target: Mitogen-activated protein kinase 9 (Homo sapiens, UniProt P45984)
Sequence of Mitogen-activated protein kinase 9 (P45984 whole entry): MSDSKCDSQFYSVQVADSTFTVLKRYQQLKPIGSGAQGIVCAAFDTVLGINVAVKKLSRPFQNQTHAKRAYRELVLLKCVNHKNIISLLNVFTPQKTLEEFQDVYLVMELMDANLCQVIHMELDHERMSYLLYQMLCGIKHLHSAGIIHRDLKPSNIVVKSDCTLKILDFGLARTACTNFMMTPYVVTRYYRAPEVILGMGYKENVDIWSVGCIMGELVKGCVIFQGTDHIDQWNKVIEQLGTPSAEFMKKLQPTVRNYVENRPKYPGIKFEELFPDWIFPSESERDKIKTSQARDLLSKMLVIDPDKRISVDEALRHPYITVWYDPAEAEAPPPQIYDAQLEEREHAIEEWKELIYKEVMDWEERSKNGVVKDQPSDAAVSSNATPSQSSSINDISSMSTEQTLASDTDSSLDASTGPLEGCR
Note: in the data inactive means no Kd found up to 30 µM.

O=C(Cc1ccc(-c2ccc(OCCN3CCOCC3)cc2)cn1)NCc1ccccc1 [TIRBANIBULIN]
Kd (GTP-binding protein 4): > 30 µM (inactive) | Kd [1]: > 30 µM (inactive) | Kd [2]: > 30 µM (inactive) | Kd [3]: > 30 µM (inactive) | Kd [4]: > 30 µM (inactive) | Kd [5]: > 30 µM (inactive) | Kd [6]: > 30 µM (inactive) | Kd (Myosin-10): > 30 µM (inactive) | Kd [7]: > 30 µM (inactive) | Kd [8]: > 30 µM (inactive) | Kd [9]: > 30 µM (inactive) | Kd [10]: > 30 µM (inactive)

C[C@@H](NC(=O)c1ncnc(N)c1Cl)c1ncc(C(=O)Nc2cc(C(F)(F)F)c(Cl)cn2)s1 [TOVORAFENIB]
Kd (GTP-binding protein 4): > 30 µM (inactive) | Kd [1]: > 30 µM (inactive) | Kd [2]: > 30 µM (inactive) | Kd [3]: > 30 µM (inactive) | Kd [4]: > 30 µM (inactive) | Kd [5]: > 30 µM (inactive) | Kd [6]: 0.063 µM (active) | Kd (Myosin-10): > 30 µM (inactive) | Kd [7]: > 30 µM (inactive) | Kd [8]: > 30 µM (inactive) | Kd [9]: > 30 µM (inactive) | Kd [10]: > 30 µM (inactive)

Cc1cc(Nc2ncnc3ccc(NC4=NC(C)(C)CO4)cc23)ccc1Oc1ccn2ncnc2c1 [TUCATINIB]
Kd (GTP-binding protein 4): > 30 µM (inactive) | Kd [1]: > 30 µM (inactive) | Kd [2]: > 30 µM (inactive) | Kd [3]: > 30 µM (inactive) | Kd [4]: > 30 µM (inactive) | Kd [5]: > 30 µM (inactive) | Kd [6]: > 30 µM (inactive) | Kd (Myosin-10): > 30 µM (inactive) | Kd [7]: > 30 µM (inactive) | Kd [8]: > 30 µM (inactive) | Kd [9]: > 30 µM (inactive) | Kd [10]: > 30 µM (inactive)

C[C@@H](N)c1ccc(C(=O)Nc2ccnc3[nH]ccc23)cc1 [Y-39983]
Kd (GTP-binding protein 4): > 30 µM (inactive) | Kd [1]: > 30 µM (inactive) | Kd [2]: 3.28 µM (active) | Kd [3]: > 30 µM (inactive) | Kd [4]: > 30 µM (inactive) | Kd [5]: > 30 µM (inactive) | Kd [6]: > 30 µM (inactive) | Kd (Myosin-10): > 30 µM (inactive) | Kd [7]: > 30 µM (inactive) | Kd [8]: > 30 µM (inactive) | Kd [9]: > 30 µM (inactive) | Kd [10]: > 30 µM (inactive)

CN1C/C=C/CCOc2cccc(c2)-c2ccnc(n2)Nc2cccc(c2)C1 [ZOTIRACICLIB]
Kd (GTP-binding protein 4): > 30 µM (inactive) | Kd [1]: > 30 µM (inactive) | Kd [2]: 0.885 µM (active) | Kd [3]: 1.46 µM (active) | Kd [4]: > 30 µM (inactive) | Kd [5]: > 30 µM (inactive) | Kd [6]: > 30 µM (inactive) | Kd (Myosin-10): > 30 µM (inactive) | Kd [7]: 0.473 µM (active) | Kd [8]: > 30 µM (inactive) | Kd [9]: > 30 µM (inactive) | Kd [10]: 2.31 µM (active)
